In patent US20230021448A1, “COMPOUNDS AND COMPOSITIONS FOR TREATING CONDITIONS ASSOCIATED WITH STING ACTIVITY” (IFM Due, Inc., priority 2019, published 2023):

Target: T1, STING (Homo sapiens, UniProt Q86WV6, G230A/H232R/R293Q/R71H)
T1 construct: host or cells: THP1-Dual KO-IFNAR2 cells
Assay: STING reporter assay: luciferase reporter activity in THP1-Dual KO-IFNAR2 cells stimulated with 2'3'cGAMP
Format: cell-based
Settings: 2′3′cGAMP 15 μM final, 24h, read-out: hSTING: EC50
In short: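 THP1-Dual KO-IFNAR2 cells (2×10E6 cells/mL) incubated with compounds at 0.0017-100 μM final plus Lipofectamine-transfected 2′3′cGAMP (15 μM final), 24 h at 37 °C, 5% CO2. Luciferase in supernatant read by QUANTI-Luc luminescence; EC50 derived.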

T1 sequence (Q86WV6 whole entry R71H/G230A/H232R/R293Q): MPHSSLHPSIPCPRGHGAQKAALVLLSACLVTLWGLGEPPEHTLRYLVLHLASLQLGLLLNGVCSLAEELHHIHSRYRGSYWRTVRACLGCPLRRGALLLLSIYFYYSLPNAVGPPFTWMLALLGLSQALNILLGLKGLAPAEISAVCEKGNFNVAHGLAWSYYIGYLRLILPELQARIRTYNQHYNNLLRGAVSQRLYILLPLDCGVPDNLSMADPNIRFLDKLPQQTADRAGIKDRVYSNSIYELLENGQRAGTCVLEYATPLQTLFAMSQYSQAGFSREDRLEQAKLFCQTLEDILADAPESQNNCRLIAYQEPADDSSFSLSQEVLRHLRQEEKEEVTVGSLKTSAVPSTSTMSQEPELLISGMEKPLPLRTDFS

Row | EC50 [µM] | SMILES
1 | 1 to 5 | O=C(Nc1cnc2c(c1)CCC2)C(=O)Nc1c[nH]c2cc(F)c(F)cc12 [Compound 274, N′-{5H,6H,7H-cyclopenta[b]pyridin-3-yl}-N-(5,6-difluoro-1H-indol-3-yl)ethanediamide]
2 | 1 to 5 | CCC1CCN(C(=O)C(=O)Nc2c[nH]c3cc(F)c(F)cc23)CC1 [Compound 117]
3 | 0.2 to 1 | C#Cc1ccc(NC(=O)C(=O)Nc2c[nH]c3cc(F)c(F)cc23)cc1 [Compound 182]
4 | 0.04 to 0.2 | O=C(Nc1ccc(C(F)(F)F)cc1)C(=O)Nc1c[nH]c2cc(F)c(F)cc12 [Compound 115, N1-(5,6-difluoro-1H-indol-3-yl)-N2-(4-(trifluoromethyl)phenyl) oxalamide]
5 | 0.2 to 1 | O=C(Nc1ccc(C(F)(F)F)cc1)C(=O)Nc1c[nH]c2cc(F)ccc12 [Compound 172]
6 | 0.2 to 1 | CC(C)(NC(=O)C(=O)Nc1c[nH]c2cc(F)c(F)cc12)c1ccc(C(F)(F)F)cc1 [Compound 125]
7 | 0.04 to 0.2 | Cc1cc(NC(=O)C(=O)Nc2c[nH]c3cc(F)c(F)cc23)cc(C(F)(F)F)c1 [Compound 103, N^1-(5,6-difluoro-1H-indol-3-yl)-N^2-(3-methyl-5-(trifluoromethyl)phenyl)oxalamide]
8 | 1 to 5 | O=C(Nc1c[nH]c2cc(F)c(F)cc12)C(=O)NC1CCN(c2cccnc2)C1 (centres unmarked) [Compound 332]
9 | 5 to 100 | Cc1ccc(CNC(=O)C(=O)Nc2c[nH]c3cc(F)c(F)c(Br)c23)cc1C(F)(F)F [Compound 242]
10 | 0.2 to 1 | O=C(NCc1ccc(-c2ccccc2C(F)(F)F)cc1)C(=O)Nc1c[nH]c2cc(F)c(F)cc12 [Compound 108]
11 | 0.04 to 0.2 | O=C(NCc1ccc(C(F)(F)F)cn1)C(=O)Nc1c[nH]c2cc(F)c(F)cc12 [Compound 119, N-(5,6-difluoro-1H-indol-3-yl)-N′-[[5-(trifluoromethyl)pyridin-2-yl]methyl]ethanediamide]
12 | 0.2 to 1 | O=C(Nc1c[nH]c2cc(F)c(F)cc12)C(=O)NC1CCCC2(CCCCC2)C1 (single isomer, unassigned) [Compound 258]
13 | 5 to 100 | O=C(NCC(c1ccccc1)n1ccnc1)C(=O)Nc1c[nH]c2cc(F)c(F)cc12 (centres unmarked) [Compound 277, N-(5,6-difluoro-1H-indol-3-yl)-N′-[2-(1H-imidazol-1-yl)-2-phenylethyl] ethanediamide]
14 | 0.04 to 0.2 | O=C(Nc1c[nH]c2cc(F)c(F)cc12)C(=O)NC1CCC(Oc2ccc(C(F)(F)F)cc2)CC1 (centres unmarked) [Compound 315]
15 | 0.2 to 1 | O=C(NCc1ccc2ccccc2n1)C(=O)Nc1c[nH]c2cc(F)c(F)cc12 [Compound 304, N-(5,6-difluoro-1H-indol-3-yl)-N′-[(quinolin-2-yl)methyl] ethanediamide]
16 | 1 to 5 | O=C(Nc1c[nH]c2cc(F)c(F)cc12)C(=O)NC1CC2CCC(C1)C2Oc1ccc(C(F)(F)F)cc1 (centres unmarked) [Compound 205]
17 | 0.2 to 1 | O=C(Nc1c[nH]c2cc(F)c(F)cc12)C(=O)N[C@H]1CCCC(Oc2ccc(C(F)(F)F)cc2)C1 (some centres unmarked) [Compound 233]
18 | 1 to 5 | COc1ncc(NC(=O)C(=O)Nc2c[nH]c3cc(F)c(F)cc23)cc1C(F)(F)F [Compound 287, N-(5,6-difluoro-1H-indol-3-yl)-N′-[6-methoxy-5-(trifluoromethyl)pyridin-3-yl]ethanediamide]
19 | 1 to 5 | CN(C(=O)C(=O)Nc1c[nH]c2cc(F)c(F)cc12)c1ccc(C(F)(F)F)cc1 [Compound 114]
20 | 0.2 to 1 | N#Cc1cc(NC(=O)C(=O)Nc2c[nH]c3cc(F)c(F)cc23)cnc1N1CCCC1 [Compound 231]
21 | 5 to 100 | O=C(Nc1c[nH]c2cc(F)c(F)cc12)C(=O)NC1CCC(O)(C(F)(F)F)CC1 (centres unmarked) [Compound 300, N-(5,6-difluoro-1H-indol-3-yl)-N′-[4-hydroxy-4-(trifluoromethyl)cyclohexyl] ethanediamide]
22 | 0.2 to 1 | COc1ccc(CNC(=O)C(=O)Nc2c[nH]c3cc(F)c(F)cc23)cc1C(F)(F)F [Compound 159, N1-(5,6-difluoro-1H-indol-3-yl)-N2-(4-methoxy-3-(trifluoromethyl)benzyl)oxalamide]
23 | 0.04 to 0.2 | O=C(Nc1ccc(C(F)(F)F)cc1)C(=O)Nc1c[nH]c2ccc(Br)cc12 [Compound 302]
24 | 0.2 to 1 | O=C(NCC(c1ccccc1)C(F)F)C(=O)Nc1c[nH]c2cc(F)c(F)cc12 (centres unmarked) [Compound 139]
25 | 0.2 to 1 | O=C(Nc1c[nH]c2cc(F)c(F)cc12)C(=O)N[C@@H]1CCCC(Oc2ccc(C(F)(F)F)cc2)C1 (some centres unmarked) [Compound 234]
26 | 0.2 to 1 | COc1ccc(CNC(=O)C(=O)Nc2c[nH]c3cc(F)c(F)cc23)cc1Cl [Compound 161, N1-(3-chloro-4-methoxybenzyl) N2-(5,6-difluoro-1H-indol-3-yl)oxalamide]
27 | 0.2 to 1 | O=C(NCCOc1cncc(C(F)(F)F)c1)C(=O)Nc1c[nH]c2cc(F)c(F)cc12 [Compound 325]

Row | EC50 [µM] | SMILES
28 | 0.04 to 0.2 | O=C(Nc1c[nH]c2cc(F)ccc12)C(=O)NC1CCC(Oc2ccc(C(F)(F)F)cn2)CC1 (centres unmarked) [Compound 225, N-(6-fluoro-1H-indol-3-yl)-N′-(4-((5-(trifluoromethyl)pyridin-2-yl)oxy)cyclohexyl)oxalamide]
29 | 0.2 to 1 | CC(NC(=O)C(=O)Nc1c[nH]c2cc(F)c(F)cc12)c1cc(C(F)(F)F)c(Cl)cn1 (centres unmarked) [Compound 303]
30 | 0.2 to 1 | O=C(NCc1cccc(C(F)(F)F)n1)C(=O)Nc1c[nH]c2cc(F)c(F)cc12 [Compound 338]
31 | 0.2 to 1 | O=C(NCc1cccc(C(F)(F)F)c1F)C(=O)Nc1c[nH]c2cc(F)c(F)cc12 [Compound 163, N1-(5,6-difluoro-1H-indol-3-yl)-N2-(2-fluoro-3-(trifluoromethyl)benzyl)oxalamide]
32 | 5 to 100 | CN(Cc1ccc(C(F)(F)F)c(Cl)c1)C(=O)C(=O)Nc1c[nH]c2cc(F)c(F)cc12 [Compound 141]
33 | 0.2 to 1 | O=C(NCCN1CCCc2ccccc21)C(=O)Nc1c[nH]c2cc(F)c(F)cc12 [Compound 294, N-(5,6-difluoro-1H-indol-3-yl)-N′-[2-(1,2,3,4-tetrahydroquinolin-1-yl)ethyl]ethanediamide]
34 | 1 to 5 | O=C(NCCC1CCC(F)(F)CC1)C(=O)Nc1c[nH]c2ccccc12 [Compound 179]
35 | 0.2 to 1 | O=C(Nc1c[nH]c2cc(F)c(F)cc12)C(=O)N1CCCC(Oc2ccc(C(F)(F)F)cc2)C1 (centres unmarked) [Compound 195]
36 | 0.2 to 1 | O=C(NCc1cnc(C(F)(F)F)c(Cl)c1)C(=O)Nc1c[nH]c2cc(F)c(F)cc12 [Compound 173]
37 | 0.2 to 1 | O=C(Nc1c[nH]c2cc(F)c(F)cc12)C(=O)N[C@H]1CC[C@H](OCC(F)F)CC1 [Compound 174]
38 | 0.04 to 0.2 | O=C(Nc1c[nH]c2cc(F)c(F)cc12)C(=O)NC1CC(Oc2ccc(C(F)(F)F)cn2)C1 (centres unmarked) [Compound 226]
39 | 0.2 to 1 | Cc1ccc(CNC(=O)C(=O)Nc2c[nH]c3ccc(-c4cnn(C(C)C)c4)cc23)cc1C(F)(F)F [Compound 168]
40 | 0.2 to 1 | O=C(NC[C@@H](C(F)F)C1CCCCC1)C(=O)Nc1c[nH]c2cc(F)c(F)cc12 [Compound 135]
41 | 0.04 to 0.2 | O=C(Nc1c[nH]c2cc(F)c(F)cc12)C(=O)N[C@H]1CC[C@H](Oc2ccc(C(F)(F)F)cc2)CC1 [Compound 250, N-(5,6-difluoro-1H-indol-3-yl)-N′-(trans-4-(4-(trifluoromethyl)phenoxy)cyclohexyl)oxalamide]
42 | 1 to 5 | CC(C)(C)OC(=O)N1CCC2(CC1)CC(NC(=O)C(=O)Nc1c[nH]c3cc(F)c(F)cc13)CO2 (centres unmarked) [Compound 271, tert-butyl 3-{[(5,6-difluoro-1H-indol-3-yl)carbamoyl] formamido}-1-oxa-8-azaspiro[4.5]decane-8-carboxylate]
43 | 1 to 5 | CC1(CNC(=O)C(=O)Nc2c[nH]c3cc(F)c(F)cc23)CCC(F)(F)CC1 [Compound 153, N1-((4,4-difluoro-1-methylcyclohexyl)methyl)-N2-(5,6-difluoro-1H-indol-3-yl)oxalamide]
44 | 1 to 5 | O=C(Nc1c[nH]c2cc(F)c(F)cc12)C(=O)N[C@H]1CC[C@@H](Oc2ccc(C(F)(F)F)cn2)CC1 [Compound 229]
45 | 0.2 to 1 | O=C(Nc1c[nH]c2cc(F)c(Cl)cc12)C(=O)N[C@H]1CC[C@H](Oc2ccc(C(F)(F)F)cn2)CC1 [Compound 209, N-(5-chloro-6-fluoro-1H-indol-3-yl)-N′-(trans-4-((5-(trifluoromethyl)pyridin-2-yl)oxy)cyclohexyl)oxalamide]
46 | 0.2 to 1 | O=C(NCC(C(F)F)C1CCCCC1)C(=O)Nc1c[nH]c2cc(F)c(F)cc12 (centres unmarked) [Compound 142]
47 | 0.2 to 1 | O=C(NCC1COc2ccccc2O1)C(=O)Nc1c[nH]c2cc(F)c(F)cc12 (centres unmarked) [Compound 261, N-(5,6-difluoro-1H-indol-3-yl)-N′-[(2,3-dihydro-1,4-benzodioxin-2-yl)methyl] ethanediamide]
48 | 0.04 to 0.2 | O=C(NCc1ccc(Cl)c(C(F)(F)F)c1)C(=O)Nc1c[nH]c2cc(F)c(F)cc12 [Compound 164, N1-(4-chloro-3-(trifluoromethyl)benzyl)-N2-(5,6-difluoro-1H-indol-3-yl)oxalamide]
49 | 0.2 to 1 | O=C(NCCc1ccc(C(F)(F)F)cc1)C(=O)Nc1c[nH]c2cc(F)c(F)cc12 [Compound 144, N1-(5,6-difluoro-1H-indol-3-yl)-N2-(4-(trifluoromethyl)phenethyl) oxalamide]
50 | 0.2 to 1 | Cc1c(CNC(=O)C(=O)Nc2c[nH]c3cc(F)c(F)cc23)cccc1C(F)(F)F [Compound 132, N1-(5,6-difluoro-1H-indol-3-yl)-N2-(2-methyl-3-(trifluoromethyl)benzyl)oxalamide]
51 | 0.04 to 0.2 | Cc1ccc(CNC(=O)C(=O)Nc2c[nH]c3cc(F)c(F)cc23)cc1C(F)(F)F [Compound 107]
52 | 1 to 5 | O=C(Nc1c[nH]c2cc(F)c(F)cc12)C(=O)N[C@H]1CC[C@@H](Oc2ccc(C(F)(F)F)cc2)CC1 [Compound 249]
53 | 0.2 to 1 | O=C(Nc1c[nH]c2cc(F)c(F)cc12)C(=O)NC1CCC2(CCCC2)C1 (single isomer, unassigned) [Compound 246]
